“Also recorded” adds a separate entry of the source.
Assays:
C57BL/6N mice [1] = experiment: Chronic social defeat stress model, forced swim test; format: in vivo, mouse
Description: (§1) The forced swim paradigm was carried out between 1 pm and 4 pm in a 3-litre glass beaker half-filled with water at 22-23° C. (the water depth was 17 cm). All mice were tested only once in this task. To this end, each mouse was lowered gently into the water and the time of immobility was scored during a 6-minute testing period. The mouse was judged immobile when it floated in an upright position and made only small movements to keep its head above the water. After 6 min, the mouse was taken out of the water, left to dry under a red light lamp and returned to its home cage. The immobility scores of each animal were used as an index of despair behavior.
(§2) Social defeat stress procedure was a modified version of the protocol previously described (Berton, McClung et al. 2006). C57BL/6N mice were defeated chronically for 10 consecutive days. Every day they were exposed to the physical contact with an unfamiliar CD1 aggressor in its home cage for maximal interaction time of 5 minutes. After each session of physical stress, C57BL/6N and CD1 mice were separated by a perforated wall and maintained in sensory contact for 24 h. After the last session of stress, mice were transferred into new cages and housed separately throughout the behavioral tests period. C57BL/6N control mice, similarly to the experimental animals, were housed two per cage separated by a metal perforated wall. Every day, they were exposed to the physical contact for 5 minutes.
(§3) For behavioral analysis, 9CDHROL and 9CDHBC were dissolved in ethanol, and then mixed with sunflower oil, so that the final solution contained 3% ethanol. Vehicle treatments consisted of 3% ethanol solution in sunflower oil. For memory studies treatments with 9CDHRA were administered by intraperitoneal injections at volume/weight ratio 3 ml/kg at 7 am and 7 hours before the beginning of testing. For tests with animal model of chronic social defeat, different treatments were administered by intraperitoneal injections at volume/weight ratio 3 ml/kg at 10 mg/kg for each substance between 5-6 pm every second day of stress protocol immediately after the stress session starting from day 1 of the stress protocol.
as §1, with “paradigm (Dalvi and Lucki, 1999)” for “paradigm”, “2-litre” for “3-litre”
as §2, with “(Berton” for “(Berton, McClung”, “C57BL/6N control mice, similarly to the experimental animals, were housed two per cage separated by a metal perforated wall. Every day, they were exposed to the physical contact for 5 minutes.” left out

C57BL/6N mice [2] = experiment: Chronic social defeat stress model, sucrose preference test; format: in vivo, mouse; conditions: stressed mice; for sucrose preference deficit, treatments during stress protocol: dose not given at the place
Text: This task, designed to measure hedonic behaviors in mice is based on the palatable nature of sucrose observed in a number of mouse strains. On the first day of the test, sucrose-naive mice were placed in individual cages at 11 am and left there with water and food for habituation period. At 5 pm one water bottle was replaced with two bottles: one containing water and another 0.8% sucrose solution. Three hours later (8 pm) the bottles were weighed to measure liquid consumption and were replaced in cages until morning. The measures of an overnight consumption were then carried out for additional day to evaluate sucrose preference. Mice were not water deprived at any moment, in order to measure spontaneous sucrose preference and exclude any potential emotional confounds induced by stress of water deprivation. The sucrose preference was expressed as the percent of sucrose solution consumed with respect to total liquid consumption.
as §2
as §3, with “by intraperitoneal injections at volume/weight ratio 3 ml/kg at 10 mg/kg for each substance between 5-6 pm every second” left out
This task, designed to measure hedonic behavior in mice (Moreau, 1997), is based on the palatable nature of sucrose observed in a number of mouse strains. On the first day of the test, sucrose-naive mice were placed in individual cages at 11 am and left there with water and food for habituation period. At 5 pm one water bottle was replaced with two bottles: one containing water and another 0.8% sucrose solution. Three hours later (8 pm) the bottles were weighed to measure liquid consumption and were replaced in cages until morning. The measures of an overnight consumption were then carried out for additional day to evaluate sucrose preference. Mice were not water deprived at any moment, in order to measure spontaneous sucrose preference and exclude any potential emotional confounds induced by stress of water deprivation. The sucrose preference was expressed as the percent of sucrose solution consumed with respect to total liquid consumption.
Social defeat stress procedure was a modified version of the protocol previously described (Berton et al. 2006). C57BL/6N mice were defeated chronically for 10 consecutive days. […]

| SMILES | immobility time versus stressed, nontreated mice (C57BL/6N mice [1]; 3 mg/kg) | immobility time in the forced swim test (C57BL/6N mice [1]; stressed mice, 1 or 3 mg/kg during the stress protocol) | sucrose preference (anhedonia) (C57BL/6N mice [2]; 1 mg/kg) | sucrose preference deficit, treatments during stress protocol (C57BL/6N mice [2]) | immobility time in the forced swim test (C57BL/6N mice [1]; stressed mice, 10 mg/kg i.p. every second day of stress protocol, 10 mg/kg) | sucrose preference (anhedonia) (C57BL/6N mice [2]; 10 mg/kg i.p. every second day of stress protocol, 10 mg/kg) | immobility time in the forced swim test, compared with 9CDHRA (C57BL/6N mice [1]; stressed mice, UVI2108 during the stress protocol) |
| --- | --- | --- | --- | --- | --- | --- | --- |
| CC(C=CC1=C(C)CCCC1(C)C)=CC=CC(C)CC(=O)O (stereo not drawn) [9CDHRA, 9-cis-13,14-dihydroretinoic acid] | displayed anti-despair effects | decreased such immobility in stressed mice in a dose dependently manner; also recorded: efficiently normalized immobility time | Anhedonia was abolished | prevented |  |  |  |
| CC1=C(/C=C/C(C)=C\C=C\C(C)CCO)C(C)(C)CCC1 (stereo not drawn) [9CDHROL, 9-cis-13,14-dihydroretinol] |  |  |  |  | decreased such immobility; also recorded: efficiently normalised immobility time | prevented; also recorded: Anhedonia was abolished |  |
| CC1(C)CCC(C)(C)c2cc(C3(c4ccc(C(=O)O)cc4)OCCO3)ccc21 [UVI2108, reference compound] |  |  |  | prevented; also recorded: activities similar to 9CDHRA |  |  | comparable |

Reference: patent US12029715B2, “Precursor compounds for providing retinoids of the vitamin A5 pathway and uses thereof” (UNIVERSITY OF DEBRECEN, priority 2015, dated 2024)
